In patent US20210100246A1, “PYRIDYL-FORMAMIDINES HAVING A FUNGICIDAL ACTIVITY, THEIR AGRONOMIC COMPOSITIONS AND USE THEREOF” (ISAGRO, S.p.A., priority 2017, published 2021):

Key:
Sphaerotheca Fuliginea = assay: Preventive fungicidal activity (7 days) against Sphaerotheca Fuliginea on cucumbers; format: in vivo
Method: Determination of the preventive fungicidal activity (7 days) against Sphaerotheca Fuliginea on cucumbers.
(§1) Cucumber plants cv. Lungo of China, grown in pots in a conditioned environment were treated by spraying both sides with the products under examination in a hydroacetonic solution with 20% by volume of acetone (vol./vol.).
7 days after the treatment, the plants were sprayed on the upper side with an aqueous suspension of spores of Sphaerotheca Fuliginea (200,000 spores/cc); they were then re-transferred to the conditioned environment.
At the end of the period of incubation (8 days), the evaluation of the intensity of the infection was finally effected.
(§2) The fungicidal activity is expressed as a percentage of the reduction, with respect to non-treated seedlings (comparison), in the area of the leaf affected by the disease (100=full effectiveness; 0=zero effectiveness).

Puccinia Recondita = assay: Preventive fungicidal activity (5 days) against Puccinia Recondita on wheat; format: in vivo; conditions: wheat; for Activity P5 NT (reduction of leaf area affected, parts developed during the test): non-treated parts (NT); for effectiveness in containing the disease (in words): summary of Table 4
Method: Determination of the preventive fungicidal activity (5 days) against Puccinia Recondita on wheat.
(§3) Leaves of wheat plants of the Salgemma variety, grown in pots in a conditioned environment at 20° C. and 70% of Relative Humidity (RH) were treated by spraying both sides of the leaves with the compound under examination (see Table 4 hereunder) dispersed in a hydroacetonic solution at 20% by volume of acetone.
After remaining 5 days in a conditioned environment, the plants were sprayed on both sides of the leaves with an aqueous suspension of conidia of Puccinia Recondita (2 mg of inoculum per 1 ml of solution for infection).
After spraying, the plants were kept in a humidity-saturated environment at a temperature ranging from 18 to 24° C. for the incubation period of the fungus (1 day).
At the end of this period, the plants were put in a greenhouse with a relative humidity (RH) of 70% and at a temperature of 18-24° C. for 14 days.
At the end of this period, the external symptoms of the pathogen appeared and it was therefore possible to proceed with the visual evaluation of the intensity of the infection, both on the parts treated directly with the products (T) and on the parts developed during the implementation of the test (NT).
as §2

Uromyces Appendiculatus = assay: Preventive fungicidal activity (5 days) against Uromyces Appendiculatus on beans; format: in vivo
Method: Determination of the preventive fungicidal activity (5 days) against Uromyces Appendiculatus on beans.
(§4) Bean plants cv. Borlotto of Vigevano, grown in pots in a conditioned environment, were treated by spraying both sides with the products under examination in a hydroacetonic solution with 20% by volume of acetone (vol./vol.).
After remaining 5 days in a conditioned environment at 23° C. and 70% of relative humidity, the plants were sprayed on the lower side with an aqueous suspension of spores of Uromyces Appendiculatus (200,000 spores/cc); after remaining 24 hours in a humidity-saturated environment, they were re-transferred to the conditioned environment.
After this period, the external symptoms of the pathogen appeared and it was therefore possible to proceed with the visual evaluation of the intensity of the infection.
as §2

bean seedlings = assay: Phytotoxicity (percentage of leaf necrosis) on bean seedlings; format: in vivo; conditions: scale 0-100
Method: as §4
At the same time, an evaluation of the phytotoxicity was effected (percentage of leaf necrosis) induced on the bean seedlings by the application of the products: in this case the evaluation scale ranges from 0 (completely healthy plant) to 100 (completely necrotic plant).

[1] = Accelerated stability test of 5% solutions in commercial solvents (54° C., 2 weeks, HPLC); format: physicochemical
Method: Stability tests of the compositions containing compounds having formula (I) in a solvent
In order to evaluate the chemical stability of the compounds having Formula (I) in a solvent, 5% solutions were prepared, containing 250 mg of compounds Nr. 1, 17, 39 and 40, dissolved in 4.75 g of various commercial solvents used for the preparation of emulsifiable concentrates.
The resulting solutions were put in an oven at 54° C. for 2 weeks (according to Cipac MT 46.1 update 2012) and then analyzed by means of HPLC in order to verify the concentration of the active ingredient contained therein. The percentage of degradation of the compound having Formula (I) was therefore obtained, after the accelerated stability test.

wheat seedlings = assay: Phytotoxicity (percentage of leaf necrosis) on wheat seedlings; format: in vivo; conditions: for Phytotoxicity % N.F. (leaf necrosis): wheat seedlings, scale 0-100; for symptoms of phytotoxicity on the plant (in words): wheat, summary of Table 4
Method: as §3
At the same time, an evaluation of the phytotoxicity was effected (percentage of leaf necrosis) induced on the wheat seedlings by the application of the products: in this case the evaluation scale ranges from 0 (completely healthy plant) to 100 (completely necrotic plant).

cucumber seedlings = assay: Phytotoxicity (percentage of leaf necrosis) on cucumber seedlings; format: in vivo; conditions: scale 0-100
Method: as §1
At the same time, an evaluation of the phytotoxicity was effected (percentage of leaf necrosis) induced on the cucumber seedlings by the application of the products: in this case the evaluation scale ranges from 0 (completely healthy plant) to 100 (completely necrotic plant).

Helmintosporium teres = assay: Preventive fungicidal activity (7 days) against Helmintosporium teres on barley; format: in vivo; conditions: for Activity P7: 125 ppm, scale 0 (completely infected plant) to 100 (healthy plant)
Method: Determination of the preventive fungicidal activity (7 days) against Helmintosporium teres on barley. […] After remaining 7 days in a conditioned environment, the plants were sprayed on both sides of the leaves with an aqueous suspension of conidia of Helmintosporium teres (50,000 conidia/cc+Tween 20-1 drop/100 ml). The plants were then kept in a controlled environment during the incubation period of the fungus (wet room 1 day for infection, 3 days in a cell with 70% of R.H. and at a temperature of […] for the incubation period, 3 days for completion in a wet room, biological cycle 12 days). At the end of this period (12 days), the fungicidal activity was evaluated according to an evaluation percentage scale from 0 (completely infected plant) to 100 (healthy plant).

Parastagonospora nodorum = assay: Preventive activity (7 days) against Parastagonospora nodorum on wheat; format: in vivo; conditions: 250 ppm
Method: Determination of the preventive activity (7 days) of the compounds having formula (I) against Parastagonospora nodorum on wheat. […] After remaining 48 hours in a humidity-saturated environment, at 21° C., the plants were transferred for the incubation period (10-12 days) to a conditioned environment at 70% of R.H. and at a temperature of 24° C. At the end of this period, the external symptoms of the pathogen appeared and it was therefore possible to proceed with the visual evaluation of the intensity of the infection. The fungicidal activity was expressed as a percentage of the reduction, with respect to non-treated seedlings (comparison), in the area of the leaf affected by the disease (100=full effectiveness; 0=zero effectiveness). Table 7 indicates the results obtained by carrying out the test described with compound Nr. 12, compared with a compound described in WO2008/101682: […]

Molecule	Activity P5 (Sphaerotheca Fuliginea; 30 ppm)	Activity P5 (Sphaerotheca Fuliginea; 125 ppm)	Activity P5 NT (reduction of leaf area affected, parts developed during the test) (Puccinia Recondita; 125 ppm)	Activity P5 T (reduction of leaf area affected, parts treated directly) (Puccinia Recondita; 125 ppm)	Activity P5 NT (reduction of leaf area affected, parts developed during the test) (Puccinia Recondita; 250 ppm)	Activity P5 T (reduction of leaf area affected, parts treated directly) (Puccinia Recondita; 250 ppm)	effectiveness in containing the disease (in words) (Puccinia Recondita)	Activity P5 (Uromyces Appendiculatus; 30 ppm)	Activity P5 (Uromyces Appendiculatus; 125 ppm)	Phytotoxicity % N.F. (leaf necrosis) (bean seedlings; 30 ppm)	Phytotoxicity % N.F. (leaf necrosis) (bean seedlings; 125 ppm)	Phytotoxicity % N.F. (leaf necrosis) (wheat seedlings; 125 ppm)	Phytotoxicity % N.F. (leaf necrosis) (wheat seedlings; 250 ppm)	symptoms of phytotoxicity on the plant (in words) (wheat seedlings)	Phytotoxicity % N.F. (leaf necrosis) (cucumber seedlings; 30 ppm)	Phytotoxicity % N.F. (leaf necrosis) (cucumber seedlings; 125 ppm)	effectiveness on Helmintosporium teres (in words) (Helmintosporium teres)	Activity P7 (Helmintosporium teres)	also measured
CCN(C)C=Nc1cc(Br)c(SCc2cccc(C(F)(F)F)c2)nc1C [Compound 1, N-ethyl-N-methyl-N′-5bromo-2-methyl-6-{[3-(trifluoromethyl)benzyl]thio}pyridyl-3-formamidine]	90%	100%	75%	98%	85%	100%	effective in containing the disease	90%	100%	0 % N.F.	0 % N.F.	0 % N.F.	0 % N.F.	do not show any symptoms of phytotoxicity	0 % N.F.	0 % N.F.	–	–	percentage of degradation ([1]; solvent ADMA 10 (N,N-dimethyldecanamide)): 1.07%; percentage of degradation ([1]; solvent Alkamuls T/20 (ethoxylated sorbitan monolaurate)): 58.61%; percentage of degradation ([1]; solvent CME (rapeseed methyl ester)): 10.79%; percentage of degradation ([1]; solvent FMPC (N-formylmorpholine and propylene carbonate)): 1.46%; percentage of degradation ([1]; solvent Green 25 (dimethylsulfoxide, acetophenone, 2-ethylhexyl acetate)): 2.07%; percentage of degradation ([1]; solvent Propylene carbonate): 3%; percentage of degradation ([1]; solvent Purasolv BL (butyl lactate)): 100%; percentage of degradation ([1]; solvent RPDE (dimethyl glutarate, dimethyl succinate, dimethyl adipate)): 0.78%
CCN(C)C=Nc1cc(C)c(SCCC(C)C)nc1C [Compound 2]	99%	100%	85%	100%	95%	100%	effective in containing the disease	100%	100%	0 % N.F.	0 % N.F.	0 % N.F.	0 % N.F.	do not show any symptoms of phytotoxicity	0 % N.F.	2 % N.F.	–	–	–
CCN(C)C=Nc1cc(Br)c(Sc2ccc(Cl)c(C(F)(F)F)c2)nc1C [Compound 8]	–	–	–	–	–	–	–	–	–	–	–	–	–	–	–	–	higher effectiveness with respect to the reference compound CR4	30%	–
N-ethyl-N-methyl-N′-[5-bromo-2-methyl-6-[(1-methyl -2-propoxyethoxy]pyridyl-3-formamidine [CR3]	–	–	–	–	–	–	–	–	–	–	–	–	–	–	–	–	–	–	Activity P7 (Parastagonospora nodorum): 57%
N-ethyl-N-methyl-N′-[5-bromo-2-methyl-6-[(4-chloro-3-trifluoromethyl]phenoxy]pyridyl-3-formamidine [CR4, reference compound]	–	–	–	–	–	–	–	–	–	–	–	–	–	–	–	–	completely inactive	0%	–
